Results on 1 compound are retold here after patent US20240124510A1, “Cyclic Glycoaminoacid Derivatives” (TFCHEM, priority 2021, published 2024).

Where “and” joins values, the source holds several entries; their conditions need not be identical. Equal values may be shown once.

Data set [1] concerns normal human dermal fibroblasts (NHDF). The data set is described as follows: Signalling pathway analysis (Ingenuity Pathway Analysis, activation z-score). Conditions: for Activation z- score: 2 mg/ml on NHDF. The source says:
• Results are considered and presented per gene (and not probe). A probe set is a collection of probes designed to interrogate a given sequence of a gene. […] Gene Ontology database has been more specifically used for the data interpretation. DAVID functional annotation part was used to cluster modulated genes into significant biological processes. […] DAVID database uses the Gene Ontology consortium (http://www.geneontology.org) vocabularies (GO terms) to describe gene products in terms of their associated biological processes. Among them, only biological processes with p-value ≤0.05 were taken into account. • Signal transduction pathway analsis: The results were then processed with IPA (Ingenuity Pathway Analysis, Qiagen®) software to identify signal transduction pathways modulated by each treatment. This software takes into account the Fold Change values of each gene and, when there is enough information, the direction of modulation of the signal transduction pathways can be identified. The relevance of the effect of each treatment on a given pathway was quantified by z-score. The z-score predicts the directional change on that effect.
A more advanced bioinformatics analysis was performed using the Ingenuity Pathway Analysis software (IPA from Qiagen®). This analysis allows the identification of the impacted signalling pathways and predicts their modulation. The modulation is a stimulation when the Activation z-score is a positive value (Table 11) and an inhibition when the Activation z-score is a negative value (Table 12).

Data set [2] concerns SOD2 gene expression in aged human fibroblasts. The data set is described as follows: SOD2 gene expression in aged human fibroblasts. To be noted: 6 mg/ml. It is filed as cell-based.
The test system of data set [3] is Human dermal fibroblasts. The data set is described as follows: Cytotoxicity (LDH release) on dermal fibroblasts in classical condition. To be noted: for Cytotoxicity (LDH release), Mean / Cytotoxicity (LDH release), Values: during 24 h after 11 days of culture, normalized by cell number; for Cytotoxicity (LDH release), Values: individual values. It is filed as cell-based. The protocol:
Human dermal fibroblasts were isolated from skin tissue by dermis explants seeding in Petri dishes in DMEM-20% FBS for 3 weeks. Dermal fibroblasts were then seeded in 96-well plates and then incubated in different culture conditions described below.
Different culture conditions were realized in triplicate at least: • Positive control of cytotoxicity: cells in DMEM 1% FBS medium lysed by 0.2% triton at the end of the culture period • Control: cells in DMEM 1% FBS medium • Test: cells in DMEM 1% FBS medium added with test compound 6 and compound 44 of WO2015/140178.
Cytotoxicity was assessed by the measurement of the lactate dehydrogenase (LDH) released by damaged cells in the culture medium (using the kit CytoTox-One Non-Radioactive Cytotoxicity Assay, G1780, Promega). Cells were treated with 0.2% of triton at the end of the culture to determine the maximal toxicity response. […]
The results were normalized by cell number, determined by nuclei staining (with DAPI: 4′,6-Diamidino-2-Phenylindole, Dihydrochloride), and were represented in percentage of the lysis positive control. Compounds presenting a level of cytotoxicity below 20% compared to control were considered as non-toxic.
Quantity of LDH released by cells was normalized by cell number in each culture condition. Data are represented in percentage of the positive control.

The test system of data set [4] is human preadipocytes. Nature of the data set: Proliferation of preadipocytes in classical differentiation conditions (DAPI nuclei staining). Conditions: 2 mg/ml; for Cells number at the end of the culture, DAPI staining, Mean: differentiated control 10 118 AU. It is filed as cell-based. The protocol:
(§1) Preadipocytes have been isolated from human female hypodermis (body mass index <30 kg/m2 and <45 years old). Preadipocytes have been cultured for 24 h in 100 μl of DMEM-10% Fetal Bovine Serum (FBS) in 96-well plates. Then cells were treated to induce their differentiation in a classical or an inflammatory environment for 13 days.
(§2) To induce the preadipocytes differentiation cells were incubated in a proadipogenic cocktail (PAC) including insulin, glucocorticoid, 3-isobutyl-1-methylxanthine (IBMX), and thiazolinedione in DMEM.
(§3) To induce a fibro-inflammatory environment, cells were treated with an activated human macrophage-conditioned medium (AcMC) prepared in RPMI medium. A treatment with Dexamethasone (DXM) at 100 nM was used as anti-inflammatory response control. At D0: preadipocytes have been treated in the following conditions: • “Undifferentiation”: DMEM+¼ RPMI medium • “Differentiation”: PAC+¼ RPMI medium • “AcMC” i.e. inflammatory condition: PAC+¼ AcMC • “AcMC+DXM”: PAC+[…] AcMC+anti-inflammatory DXM at 100 nM • “AcMc+compounds”: PAC+14 AcMC+compounds to be tested
(§4) All conditions have been performed in triplicate. The medium has been changed every 2 days for 13 days.
The number of cells was determined for each condition by DAPI nuclei staining (nuclei) and expressed in arbitrary unit.

The subject of data set [5] is human preadipocytes. Nature of the data set: Lipid index (AdipoRed area*intensity, imaging) in preadipocytes in inflammatory condition. It is filed as cell-based. Conditions: for Lipid Index (Adipored area * intensity), Mean / Lipid Index (Adipored area * intensity), Values: normalized by cells number (DAPI); for Lipid Index (Adipored area * intensity), Values: individual values. Here is the method: as §1, §2, §3, §4
A second analysis of lipid accumulation was performed with an imaging acquisition and quantification. The area and the intensity of the lipid droplets were evaluated and quantified for more accurate data. An index was calculated (area*intensity of the AdipoRed staining) and normalized by cells number.
Lipid accumulation and Lipid index were evaluated for each condition. Data are represented in percentage of proinflammatory control condition (AcMC condition).

Turning to `N[C@H]1CCCN(CC(F)(F)[C@]2(O)O[C@H](CO)[C@H](O)[C@H](O)[C@H]2O)C1=O` [Compound 6], the Activation z- score is given as 0.545 in data set [1] (Diseases or Functions Annotation: Differentiation of adipocytes); 1.421 in data set [1] (Diseases or Functions Annotation: Metabolism of cholesterol); 0.998 in data set [1] (Diseases or Functions Annotation: Synthesis of cholesterol); 1.380 in data set [1] (Diseases or Functions Annotation: Synthesis of lipids, z-score >0 = increased). In data set [1] (treatment of NHDF), the “Regulation of fibrogenesis, tensile strength of skin, synthesis of ROS, inflammatory response and chronic inflammatory disorder at a transcriptional level” value is given as “down regulation”. Besides, the “Regulation of lipid and cholesterol synthesis and differentiation of adipocytes at a transcriptional level” value in data set [1] (treatment of NHDF) was “up regulation”. Besides, in data set [2], the “increased SOD2 gene expression compared to the control” value is given as 204%. Moreover, the “Cytotoxicity (LDH release), Mean” value in data set [3] (0.1 mg/ml) was 6.7 percentage of positive control; in data set [3] (0.5 mg/ml) it was 5.6 percentage of positive control; in data set [3] (2 mg/ml), 5.1 percentage of positive control. The “Cytotoxicity (LDH release), Values” in data set [3] (0.1 mg/ml) is 5.9 percentage of positive control and 4.8 percentage of positive control and 6.5 percentage of positive control and 9.8 percentage of positive control; in data set [3] (0.5 mg/ml), 7.1 percentage of positive control and 6.6 percentage of positive control and 3.1 percentage of positive control and 5.7 percentage of positive control; in data set [3] (2 mg/ml), 4.2 percentage of positive control and 5.1 percentage of positive control and 5.3 percentage of positive control and 6.0 percentage of positive control. Further, the “Toxicity on dermal fibroblasts” value in data set [3] (2 mg/ml, 0.5 mg/ml and 0.1 mg/ml) was “No toxicity”. Further, in data set [3] (all concentrations), the “Protective effect on dermal fibroblasts under classical condition” value is given as “strong protective effect”. Besides, the figures for the “Cells number at the end of the culture, DAPI staining, Mean” value in data set [4] and in data set [4] (listed as compound 6) were 13197 AU and 13 197 AU, respectively. Also, the “Cells number at the end of the culture (DAPI staining), Values” in data set [4] (single replicates) was 13454 AU and 12839 AU and 13298 AU. The “Lipid Index (Adipored area * intensity), Mean” value in data set [5] (AcMC + 1 mg/ml) is 158.6 % of AcMC condition; in data set [5] (AcMC + 2 mg/ml), 297.9 % of AcMC condition. Also, the “Lipid Index (Adipored area * intensity), Values” in data set [5] (AcMC + 1 mg/ml) is 150.8 % of AcMC condition and 156.6 % of AcMC condition and 168.4 % of AcMC condition; in data set [5] (AcMC + 2 mg/ml), 286.0 % of AcMC condition and 338.7 % of AcMC condition and 269.0 % of AcMC condition. Besides, the “Lipid index compared to AcMC control” value in data set [5] (both concentration, inflammatory media) is recorded as “increased”.
